According to patent US20150105252A1, “SUBSTITUTED PYRAZOLES AS HERBICIDES” (E I DU PONT DE NEMOURS AND COMPANY, priority 2013, published 2015):

What was measured:
Test in all cases: Test F preemergence
hairy beggarticks = format: in vivo, Bidens pilosa
Excerpt: (§1) Seeds of plant species selected from corn (Zea mays), soybean (Glycine max), velvetleaf (Abutilon theophrasti), lambsquarters (Chenopodium album), wild poinsettia (Euphorbia heterophylla), pigweed, palmer (palmer pigweed, Amaranthus palmeri), common waterhemp (Amaranthus rudis), surinam grass (Brachiaria decumbens), large crabgrass (Digitaria sanguinalis), crabgrass, Brazil (Brazilian crabgrass, Digitaria horizontalis), fall panicum (Panicum dichotomiflorum), giant foxtail (Setaria faberii), green foxtail (Setaria viridis), goosegrass (Eleusine indica), johnsongrass (Sorghum halepense), common ragweed (Ambrosia elation), barnyardgrass (Echinochloa crus-galli), southern sandbur (Cenchrus echinatus), arrowleaf sida (Sida rhombifolia), Italian ryegrass (Lolium multiflorum), dayflower, VA (Virginia (VA) dayflower, Commelina virginica), field bindweed (Convolvulus arvensis), cocklebur (common cocklebur, Xanthium strumarium), morningglory (Ipomoea coccinea), nightshade (eastern black nightshade, Solanum ptycanthum), kochia (Kochia scoparia), yellow nutsedge (Cyperus esculentus), and hairy beggarticks (Bidens pilosa), were planted into a silt loam soil and treated preemergence with test chemicals formulated in a non-phytotoxic solvent mixture which included a surfactant.
(§2) At the same time, plants from these crop and weed species and also horseweed (Canada horseweed, Conyza canadensis), smartweed (ladysthumb smartweed, Polygonum persicaria), waterhemp_RES1, (ALS & Triazine resistant common waterhemp, Amaranthus rudis), and waterhemp_RES2, (ALS & HPPD resistant common waterhemp, Amaranthus rudis) were treated with postemergence applications of test chemicals formulated in the same manner. Plants ranged in height from 2 to 18 cm for postemergence treatments (1- to 4-leaf stage). Treated plants and controls were maintained in a greenhouse for 14 to 21 days, after which time all species were compared to controls and visually evaluated. Plant response ratings, summarized in Table F, are based on a scale of 0 to 100 where 0 is no effect and 100 is complete control. A dash (-) response means no test result.

morningglory = format: in vivo, Ipomoea coccinea
Excerpt: as §1, §2

common waterhemp = format: in vivo, Amaranthus rudis
Excerpt: as §1, §2

crabgrass, Brazil = format: in vivo, Digitaria horizontalis
Excerpt: as §1, §2

Italian ryegrass = format: in vivo, Lolium multiflorum
Excerpt: as §1, §2

dayflower, VA = format: in vivo, Commelina virginica
Excerpt: as §1, §2

[1] = Preemergence, 31 g ai/ha, scale 0 to 100
[2] = Preemergence, 62 g ai/ha, scale 0 to 100
[3] = Preemergence, 125 g ai/ha, scale 0 to 100
[4] = preemergence, 8 g ai/ha, scale 0 to 100, 100 is complete control
[5] = preemergence, 16 g ai/ha, scale 0 to 100, 100 is complete control
[6] = Preemergence, 16 g ai/ha, scale 0 to 100
[7] = Preemergence, 250 g ai/ha, scale 0 to 100

Row | SMILES | Plant response rating, Hairy Beggarticks (hairy beggarticks; [2]) | Plant response rating, Hairy Beggarticks (hairy beggarticks; [3]) | Plant response rating, Hairy Beggarticks (hairy beggarticks; [4]) | Plant response rating, Hairy Beggarticks (hairy beggarticks; [5]) | Plant response rating, Morningglory (morningglory; [2]) | Plant response rating, Morningglory (morningglory; [3]) | Plant response rating, Morningglory (morningglory; [4]) | Plant response rating, Morningglory (morningglory; [5]) | Plant response rating, Common Waterhemp (common waterhemp; [2]) | Plant response rating, Common Waterhemp (common waterhemp; [3]) | Plant response rating, Common Waterhemp (common waterhemp; [4]) | Plant response rating, Crabgrass, Brazil (crabgrass, Brazil; [2]) | Plant response rating, Crabgrass, Brazil (crabgrass, Brazil; [3]) | Plant response rating, Crabgrass, Brazil (crabgrass, Brazil; [4]) | Plant response rating, Crabgrass, Brazil (crabgrass, Brazil; [5]) | Plant response rating, Italian Ryegrass (Italian ryegrass; [2]) | Plant response rating, Italian Ryegrass (Italian ryegrass; [3]) | Plant response rating, Italian Ryegrass (Italian ryegrass; [4]) | Plant response rating, Dayflower, VA (dayflower, VA; [2]) | Plant response rating, Dayflower, VA (dayflower, VA; [3]) | other results
1 | CCOc1cc(C(=O)NCC(F)(F)F)nn1Cc1ccnc(C(F)(F)F)c1 [Compound 104] | 0 | 10 | 0 | 0 | 80 | 100 | 0 | 0 | 100 | 100 | 65 | 100 | 100 | 5 | 10 | 60 | 75 | 0 | 98 | 100 | Plant response rating, Hairy Beggarticks (hairy beggarticks; [1]): 0; Plant response rating, Morningglory (morningglory; [1]): 70; Plant response rating, Common Waterhemp (common waterhemp; [1]): 100; Plant response rating, Common Waterhemp (common waterhemp; [5]): 98; Plant response rating, Crabgrass, Brazil (crabgrass, Brazil; [1]): 95; Plant response rating, Italian Ryegrass (Italian ryegrass; [1]): 40; Plant response rating, Italian Ryegrass (Italian ryegrass; [5]): 0; Plant response rating, Dayflower, VA (dayflower, VA; [1]): 50; Plant response rating, Dayflower, VA (dayflower, VA; [4]): 0; Plant response rating, Dayflower, VA (dayflower, VA; [5]): 0
2 | CCNC(=O)c1cc(CCCl)n(Cc2ccnc(C(F)(F)F)c2)n1 [Compound 179] | 40 | 40 | 35 |  | 60 | 70 | 0 |  | 25 | 75 | 0 | 100 | 100 | 0 |  | 40 | 65 | 0 | 10 | 40 | Plant response rating, Hairy Beggarticks (hairy beggarticks; [1]): 40; Plant response rating, Morningglory (morningglory; [1]): 40; Plant response rating, Common Waterhemp (common waterhemp; [1]): 0; Plant response rating, Crabgrass, Brazil (crabgrass, Brazil; [1]): 75; Plant response rating, Italian Ryegrass (Italian ryegrass; [1]): 10; Plant response rating, Dayflower, VA (dayflower, VA; [1]): 0; Plant response rating, Dayflower, VA (dayflower, VA; [4]): 0
3 | CCNC(=O)c1cc(CC)n(Cc2ccnc(C(F)(F)F)c2)n1 [Compound 196] | 15 | 35 | 0 | 0 | 70 | 80 | 5 | 10 | 75 | 100 | 0 | 100 | 100 | 30 | 75 | 20 | 50 | 0 | 35 | 75 | Plant response rating, Morningglory (morningglory; [6]): 35; Plant response rating, Common Waterhemp (common waterhemp; [6]): 50; Plant response rating, Common Waterhemp (common waterhemp; [5]): 35; Plant response rating, Crabgrass, Brazil (crabgrass, Brazil; [6]): 100; Plant response rating, Italian Ryegrass (Italian ryegrass; [5]): 0; Plant response rating, Dayflower, VA (dayflower, VA; [4]): 0; Plant response rating, Dayflower, VA (dayflower, VA; [5]): 0
4 | Cc1cc(C(=O)NC(C)C)nn1Cc1ccnc(C(F)(F)F)c1 [Compound 197] | 25 | 20 | 0 | 0 | 30 | 60 | 0 | 10 | 65 | 85 | 20 | 100 | 100 | 0 | 75 | 30 | 30 | 0 | 0 | 40 | Plant response rating, Morningglory (morningglory; [6]): 20; Plant response rating, Common Waterhemp (common waterhemp; [6]): 65; Plant response rating, Common Waterhemp (common waterhemp; [5]): 60; Plant response rating, Crabgrass, Brazil (crabgrass, Brazil; [6]): 85; Plant response rating, Italian Ryegrass (Italian ryegrass; [5]): 0; Plant response rating, Dayflower, VA (dayflower, VA; [4]): 0; Plant response rating, Dayflower, VA (dayflower, VA; [5]): 0
5 | CCc1cc(C(=O)NC2CC2)nn1Cc1ccnc(OCC(F)(F)F)c1 [Compound 200] | 0 | 0 |  | 0 | 10 | 60 |  | 0 | 20 | 100 |  | 95 | 100 |  | 0 | 0 | 60 |  | 0 | 10 | Plant response rating, Hairy Beggarticks (hairy beggarticks; [7]): 40; Plant response rating, Morningglory (morningglory; [7]): 75; Plant response rating, Morningglory (morningglory; [6]): 0; Plant response rating, Common Waterhemp (common waterhemp; [7]): 100; Plant response rating, Common Waterhemp (common waterhemp; [6]): 0; Plant response rating, Crabgrass, Brazil (crabgrass, Brazil; [7]): 100; Plant response rating, Crabgrass, Brazil (crabgrass, Brazil; [6]): 35; Plant response rating, Italian Ryegrass (Italian ryegrass; [7]): 75; Plant response rating, Italian Ryegrass (Italian ryegrass; [5]): 0; Plant response rating, Dayflower, VA (dayflower, VA; [7]): 60; Plant response rating, Dayflower, VA (dayflower, VA; [5]): 0
